The text below walks through data of patent publication US20260174878A1, “IRAK4 DEGRADATION AGENT AND USE THEREOF” (LEADINGTAC PHARMACEUTICAL (SHAOXING) CO., LTD., priority 2022, published 2026).

As a reminder, the DC50 is the concentration giving 50% degradation. High values mean a less potent degrader, low ones a more potent degrader. In general, Dmax refers to the greatest extent of degradation seen. A low value points to a partial loss of target. Usually IC50 stands for the concentration needed to halve the response being measured.

Assay [1] addresses T1, IRAK4 protein in normal human PBMCs (Homo sapiens, UniProt Q9NWZ3).
T1 construct: host or cells: normal human PBMCs
T1 sequence (Q9NWZ3 1-460): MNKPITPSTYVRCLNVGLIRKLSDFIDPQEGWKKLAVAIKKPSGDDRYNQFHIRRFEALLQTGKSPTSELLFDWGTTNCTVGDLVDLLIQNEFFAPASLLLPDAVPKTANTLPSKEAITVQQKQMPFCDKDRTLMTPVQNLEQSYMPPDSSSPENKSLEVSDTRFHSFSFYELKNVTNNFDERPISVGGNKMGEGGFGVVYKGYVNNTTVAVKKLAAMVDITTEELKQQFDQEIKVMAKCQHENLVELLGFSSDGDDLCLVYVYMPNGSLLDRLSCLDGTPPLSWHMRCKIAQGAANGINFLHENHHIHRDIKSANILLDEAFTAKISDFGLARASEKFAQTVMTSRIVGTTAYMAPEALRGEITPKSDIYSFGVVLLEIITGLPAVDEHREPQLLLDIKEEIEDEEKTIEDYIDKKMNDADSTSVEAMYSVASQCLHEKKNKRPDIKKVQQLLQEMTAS
Briefly: Degradation of IRAK4 protein in normal human PBMCs (AlphaLISA). The assay is classed as cell-based. The conditions noted are these: 24 h incubation. The protocol: The cryopreserved normal human PBMCs (Milestone, PB010C) were thawed and resuspended in RPMI 1640 medium (Gibco, A1049101) supplemented with 10% fetal bovine serum (Gibco, 10099141), 100 U/mL penicillin, and 100 µg/mL streptomycin (Gibco, 15140122). After 0.95 mL of cells were plated in each well of a 24-well cell culture plate, 50 µL of diluted compound solution was added to corresponding wells with cells, such that the final concentration of the compound fell within the range of 0.01-3000 nM. The final concentration of DMSO was 0.25%. After the compound-treated cell plate was incubated in an incubator at 37° C. with 5% CO2 for 24 h, the cells were collected into 1.5 mL centrifuge tubes and centrifuged at 1000 rpm at 4° C. for 5 min. The cell pellets were washed twice with 1×DPBS. The resuspended cells were lysed with 100 μL of lysis buffer, left to stand on ice for 30 min, and then centrifuged at 14000 g at 4° C. for 10 min. The samples of the cell lysate supernatant after centrifugation were cryopreserved at −80° C. before testing. The cell lysis buffer was a Western and IP cell lysis buffer (Beyotime, P0013) supplemented with 1 mM phenylmethylsulfonyl fluoride and a protease inhibitor cocktail (Beyotime, P1008).
The total protein concentrations of the cell lysate samples were determined using a BCA protein quantification kit (Tiangen, PA115-02).
The prepared PBMC lysate samples were assayed for IRAK4 concentrations using a human IRAK4 AlphaLISA assay kit (PerkinElmer, AL3117C) to determine the degradation effects of the compounds on IRAK4. The method is as follows:
5 μL of each of IRAK4 standard solutions with different concentrations and test samples of cell lysate supernatant were added to a white 384-well plate (PerkinElmer, 6007299), and then 10 μL of 5× anti-IRAK4 […] beads was added to each well (final concentration of 10 μg/mL). The plate was incubated at room temperature for 30 min. Then 10 μL of 5× biotin-labeled anti-IRAK4 antibody was added to each well (final concentration of 1 nM), and the plate was incubated at room temperature for another 60 min. Finally, 25 μL of 2× streptavidin-labeled donor beads was added to each well (final concentration of 40 μg/mL), and the plate was incubated at room temperature for another 30 min. After the incubation was completed, AlphaLISA signal values were measured on a microplate reader EnVision (PerkinElmer, 2105) in the AlphaScreen standard mode. A standard curve was plotted from the AlphaLISA signal values of the IRAK4 standard solutions with different concentrations, and the IRAK4 concentration of each cell lysate supernatant was determined according to the corresponding concentrations on the standard curve for the AlphaLISA signal values of the test samples and by performing corresponding correction on the total protein concentration of each sample obtained by BCA quantification. The degradation rates for the compounds at each concentration were calculated by comparing the IRAK4 concentration with that of the control group. Then non-linear curve fittings for logarithmic concentration-inhibition rate were performed using GraphPad Prism 8, and the DC50 and Dmax values of the compound were obtained.

The target of another assay is T2, IRAK4 kinase (Homo sapiens, UniProt Q9NWZ3).
T2 construct: purchased Carna
T2 sequence (Q9NWZ3 1-460): T1 sequence (Q9NWZ3 1-460)
As to the kind of experiment: IRAK4 kinase activity test (KinEASE-STK S1 HTRF kit). The assay is classed as biochemical. The conditions noted are these: IRAK4 kinase 2.5 nM, 7 μM adenosine triphosphate, 37° C. 120 min. The protocol:
Then 2.5 nM IRAK4 kinase (Carna), 1 μM biotinylated polypeptide substrate (Cisbio), and 7 μM adenosine triphosphate (Sigma-Aldrich) were sequentially added, and the mixtures were incubated at 37° C. for 120 min. Subsequently, an anti-phosphoserine/threonine antibody (Cisbio) conjugated with a europium element compound and streptavidin conjugated with a modified XL665 (Cisbio) were added to the reaction system to stop the reaction. After 1 h of incubation at room temperature, the fluorescence intensity of each well was measured at the excitation wavelength of 337 nm and the emission wavelengths of 620 nm and 665 nm with a microplate reader EnVision (PerkinElmer) in the HTRF mode, and Ratio values were calculated using the formula: Ratio=(665 nm/620 nm)×10^4. The inhibition rates of the compounds at each concentration were calculated by comparison with the fluorescence intensity ratio of the control group. Then non-linear curve fittings for logarithmic concentration-inhibition rate were performed using GraphPad Prism 7, and the IC50 values of the compounds were obtained.
(In general: Time-resolved FRET reads energy transfer from a long-lived donor to a nearby acceptor.)

Consider `O=C1CCN(c2cc(C(=O)N3CCC4(CCN(C[C@H]5CC[C@H](n6cc(NC(=O)c7cnn8ccc(N9CCOCC9)nc78)c(C(F)F)n6)CC5)CC4)CC3)ccc2Cl)C(=O)N1` [Example 8, N-(1-((1R,4R)-4-((9-(4-chloro-3-(2,4-dioxotetrahydropyrimidin-1(2H)-yl)benzoyl)-3,9-diazaspiro [5.5]undecan-3-yl)methyl)cyclohexyl)-3-(difluoromethyl)-1H-pyrazol-4-yl)-5-morpholinopyrazolo[1,5-a]pyrimidine-3-carboxamide], for which, in assay [1], the DC50 was 0.8 nM and the Dmax came to 99.1%. At IRAK4 kinase, this molecule registered an IC50 of 17 nM.

In assay [1], `CN(CCC1CCN(C(=O)c2ccc(Cl)c(N3CCC(=O)NC3=O)c2)CC1)C[C@H]1CC[C@H](n2cc(NC(=O)c3cnn4ccc(N5CCOCC5)nc34)c(C(F)F)n2)CC1` [Example 9, N-(1-((1R,4R)-4-(((2-(1-(4-chloro-3-(2,4-dioxotetrahydropyrimidin-1(2H)-yl)benzoyl)piperidin-4-yl)ethyl)(methyl)amino)methyl)cyclohexyl)-3-(difluoromethyl)-1H-pyrazol-4-yl)-5-morpholinopyrazolo [1,5-a]pyrimidine-3-carboxamide] gave a DC50 of 0.39 nM and a Dmax of 98%. The IC50 against IRAK4 kinase came to 4.64 nM.

In assay [1], `CN(CCC1CCN(C(=O)c2ccc(Cl)c(N3CCC(=O)NC3=O)c2)CC1)C[C@H]1CC[C@H](n2cc(NC(=O)c3cnn4ccc(N5CC6CCC(C5)O6)nc34)c(C(F)F)n2)CC1` [Example 10, 5-(8-oxa-3-azabicyclo[3.2.1]octan-3-yl)-N-(1-((1R,4R)-4-(((2-(1-(4-chloro-3-(2,4-dioxotetrahydropyrimidin-1(2H)-yl)benzoyl)piperidin-4-yl)ethyl)(methyl)amino)methyl)cyclohexyl)-3-(difluoromethyl)-1H-pyrazol-4-yl)pyrazolo[1,5-a]pyrimidine-3-carboxamide] displayed a DC50 of 0.67 nM and a Dmax of 97.6%. For the same molecule, the IC50 at IRAK4 kinase worked out at 8.05 nM.

As for `O=C1CCN(c2cc(C(=O)N3CCC4(CCN(C[C@H]5CC[C@H](n6cc(NC(=O)c7cnn8ccc(N9CC%10CCC(C9)O%10)nc78)c(C(F)F)n6)CC5)CC4)CC3)ccc2Cl)C(=O)N1` [Example 11, 5-(8-oxa-3-azabicyclo[3.2.1]octan-3-yl)-N-(1-((1R,4R)-4-((9-(4-chloro-3-(2,4-dioxotetrahydropyrimidin-1(2H)-yl)benzoyl)-3,9-diazaspiro[5.5]undecan-3-yl)methyl)cyclohexyl)-3-(difluoromethyl)-1H-pyrazol-4-yl)pyrazolo[1,5-a]pyrimidine-3-carboxamide], in assay [1], it took 0.88 nM to reach half-maximal degradation (DC50) and the Dmax is 97.4%. On IRAK4 kinase, this molecule came in with an IC50 of 7.74 nM.

In assay [1], `COc1ccc(C(=O)N2CCC(CCN(C)C[C@H]3CC[C@H](n4cc(NC(=O)c5cnn6ccc(N7CCC[C@H](O)C7)nc56)c(C(F)F)n4)CC3)CC2)cc1N1CCC(=O)NC1=O` [Example 14, N-(3-(difluoromethyl)-1-((1R,4S)-4-(((2-(1-(3-(2,4-dioxotetrahydropyrimidin-1(2H)-yl)-4-methoxybenzoyl)piperidin-4-yl)ethyl)(methyl)amino)methyl)cyclohexyl)-1H-pyrazol-4-yl)-5-((S)-3-hydroxypiperidin-1-yl)pyrazolo[1,5-a]pyrimidine-3-carboxamide] gave a DC50 of 0.27 nM and a Dmax of 98.2%. For the same molecule, inhibition at IRAK4 kinase was half-maximal at 3.36 nM (IC50).

On to `COc1ccc(C(=O)N2CCC(CCN(C)C[C@H]3CC[C@H](n4cc(NC(=O)c5cnn6ccc(N7CCC[C@H](N)C7)nc56)c(C(F)F)n4)CC3)CC2)cc1N1CCC(=O)NC1=O` [Example 15, 5-((S)-3-aminopiperidin-1-yl)-N-(3-(difluoromethyl)-1-((1R,4S)-4-(((2-(1-(3-(2,4-dioxotetrahydropyrimidin-1(2H)-yl)-4-methoxybenzoyl)piperidin-4-yl)ethyl)(methyl)amino)methyl)cyclohexyl)-1H-pyrazol-4-yl)pyrazolo[1,5-a]pyrimidine-3-carboxamide], for which, in assay [1], half-maximal degradation (DC50) was put at 1.49 nM and the Dmax came to 98.8%. Half-maximal inhibition at IRAK4 kinase (IC50) was put at 3.86 nM.

Consider `CN(CCC1CCN(C(=O)c2ccc(F)c(C3CCC(=O)NC3=O)c2)CC1)C(=O)[C@H]1CC[C@H](n2cc(NC(=O)c3cnn4ccc(N5CCOCC5)nc34)c(C(F)F)n2)CC1` (stereo partly drawn) [Example 17], for which, in assay [1], the DC50 came out at 0.92 nM and the Dmax stood at 98.9%. In addition, the IC50 on IRAK4 kinase was found to be 9.82 nM.

In assay [1], `O=C1CCN(c2cc(C(=O)N3CCC4(CCC(CN5CCC(n6cc(NC(=O)c7cnn8ccc(N9CCS(=O)(=O)CC9)nc78)c(C(F)F)n6)CC5)CC4)CC3)ccc2Cl)C(=O)N1` [Example 29, N-(1-(1-((3-(4-chloro-3-(2,4-dioxotetrahydropyrimidin-1(2H)-yl)benzoyl)-3-azaspiro[5.5]undecan-9-yl)methyl)piperidin-4-yl)-3-(difluoromethyl)-1H-pyrazol-4-yl)-5-(1,1-dioxothiomorpholinyl) pyrazolo[1,5-a]pyrimidine-3-carboxamide] registered a DC50 of 0.53 nM and a Dmax of 98.2%.

Take `N[C@H]1CCCN(c2ccn3ncc(C(=O)Nc4cn(C5CCN(CC6CCC7(CC6)CCN(C(=O)c6ccc(Cl)c(N8CCC(=O)NC8=O)c6)CC7)CC5)nc4C(F)F)c3n2)C1` [Example 30, (S)-5-(3-aminopiperidin-1-yl)-N-(1-(1-((3-(4-chloro-3-(2,4-dioxotetrahydropyrimidin-1(2H)-yl)benzoyl)-3-azaspiro[5.5]undecan-9-yl)methyl)piperidin-4-yl)-3-(difluoromethyl)-1H-pyrazol-4-yl)pyrazolo [1,5-a]pyrimidine-3-carboxamide]: in assay [1], half-maximal degradation (DC50) was put at 1 nM and the Dmax amounted to 100%.

`O=C1CCN(c2cc(C(=O)N3CCC(OCCCN4CCC(n5cc(NC(=O)c6cnn7ccc(N8C[C@H]9C[C@@H]8CO9)nc67)c(C(F)F)n5)CC4)CC3)ccc2Cl)C(=O)N1` [Example 31, 5-((1R,4R)-2-oxa-5-azabicyclo[2.2.1]heptan-5-yl)-N-(1-(1-(3-((1-(4-chloro-3-(2,4-dioxotetrahydropyrimidin-1(2H)-yl)benzoyl)piperidin-4-yl)oxy)propyl)piperidin-4-yl)-3-(difluoromethyl)-1H-pyrazol-4-yl)pyrazolo[1,5-a]pyrimidine-3-carboxamide]: in assay [1], the DC50 came to 0.84 nM and the maximal degradation (Dmax) amounted to 99.2%.
